In US20240050406A1, “COMPOSITION COMPRISING OXIRACETAM FOR PREVENTING OR TREATING MUSCULAR DISEASE” (KSB TUGEN INC., priority 2021, published 2024):

What was measured:
[1] = tested on: C2C12 myotubes; assay: Myotube diameter in doxorubicin-induced cachexia cell model (Experimental Example 8); assay type: cell-based, mouse; conditions: doxorubicin 500 nM 48 h with or without oxiracetam 0.01, 0.1, 1, 10 and 30 μM; relative to control
Method: A mouse-derived C2C12 cell line was provided from the American Type Culture Collection (ATCC, CRL-1772; Manassas, VA, USA) and cultured at 37° C. in 5% CO2. In the proliferation phase of the cells before differentiation, high concentration glucose Dulbecco's modified Eagle's medium (DMEM) containing 1% penicillin/streptomycin and 10% fetal bovine serum (FBS) medium were used, and in the differentiation induction, the FBS medium was replaced with a 2% horse serum (HS)-containing medium. The C2C12 myoblasts were seeded into a 96 well culture plate and a 6 well culture plate at 2×10^5/well and 5×10^3/well, respectively, and cultured at 37° C. in a CO2 incubator. […]
Two days after anticancer agent and oxiracetam treatment, the anticancer agent-treated group (Doxorubicin), the oxiracetam-treated groups (Oxiracetam 0.01 μM, 0.1 μM, 1 μM, 10 μM and 30 μM), and the control (control) were photographed using an optical microscope at a room temperature, and the diameter (Diameter, %) of a myotube in each group was measured and compared.
(§1) Statistical processing was performed using GraphPad Prism (GraphPad Software Inc., San Diego, CA, USA). The results of each repeated experiment were expressed as mean±standard error of mean, and analyzed using the analysis of variance (Tukey's test), and statistical significance was acknowledged when the P-value was 0.05 or less.

[2] = tested on: animal model in which muscular atrophy is induced by dexamethasone; assay: Comparison with dementia drugs in dexamethasone muscular atrophy model (Experimental Example 5); assay type: in vivo, ICR mice
Source text: For an experimental group in the present invention, oxiracetam having a structure of Formula 1 was purchased from Tokyo Chemical Industry (Japan; Product No. 00398, CAS RN:62613-82-5, purity: 96%) and used. Mirtazapine and olanzapine were purchased from Tokyo Chemical Industry (Japan, Product Nos. M2151, 00393, purity: 96%) and used.
As experimental animals, 7-week-old male ICR mice were purchased and used. Until the day of the experiment, general feed (EEGJ30060: Cargill Agri Purina, Seongnam, Korea) and water were sufficiently supplied to the experimental animals, and the animals were acclimated for 1 week under an environment of a temperature of 23±2° C., a humidity of 55±10%, and a light-dark cycle of 12 hours-12 hours and used in the experiment.
After the acclimation period for the experimental animals, to create a muscular atrophy model, the mice were randomly divided into groups of 7 animals, such as a control (vehicle, n=7), a dexamethasone-treated group (n=7), and a drug-administered group (n=7). The groups except for the control were intraperitoneally injected dexamethasone at a dose of 10 mg/kg from day 7 to day 21 for 14 days. In the case of the drug-administered group, 7 days before the intraperitoneal administration of dexamethasone, the drug was orally administered using a Zonde needle at a dose of 30 or 10 mg/kg/day once a day for 21 days. During the same period, the control was administered no drug, and 100 μL of normal saline was orally administered at a time. To the dexamethasone-treated group (dexamethasone excipient, CMC), instead of the drug, 100 μL of a 0.5% carboxymethylcellulose (CMC) solution was administered. This is to set the effect on the excipient as a blank.
To measure grip strength, a grip strength test was performed. The maximum force presented when the forelimbs of an animal model of each group could no longer hold the rod by pulling the tail horizontally while holding the tail of the animal model and holding the rod of a device with both front paws was considered to be grip strength (N). Grip strength adaptation training was performed at least three times before drug administration. After measurement before drug administration (day 0) and on day 20 after drug administration began, grip strength variation (%) after drug administration began (day 20) with respect to that before drug administration (day 0) was calculated.
The lean body mass of the gastrocnemius muscle (GS) and the lean body mass of the tibialis anterior (TA) for each group were measured every 7 days. Specifically, animal models of each group were anesthetized using 3% isoflurane, fixed to a photographing bed and then photographed. During photographing, the respiratory rates and body temperatures of the animal models were measured with an animal monitoring system (SA Instruments, USA).
The whole body of the animal model was photographed through dual energy X-ray absorptiometry (DEXA) using iNSiGHT VET DXA (Osteosys, KR), and the lean body mass of each of the gastrocnemius muscle (GS) and the tibialis anterior (TA) was measured and calculated from the two-dimensional images of the gastrocnemius muscle (GS) and the tibialis anterior (TA) by a program using the region of interest (ROI).
as §1

[3] = tested on: C2C12 myotubes; assay: Myotube diameter in TNF-α muscular atrophy cell model (Experimental Example 7); assay type: cell-based, mouse; conditions: TNF-α 10 ng/ml 48 h with oxiracetam 10 μM or 0 μM; relative to non-treated control
Method: A mouse-derived C2C12 cell line was provided from the American Type Culture Collection (ATCC, CRL-1772; Manassas, VA, USA) and cultured at 37° C. in 5% CO2. In the proliferation phase of the cells before differentiation, high concentration glucose Dulbecco's modified Eagle's medium (DMEM) containing 1% penicillin/streptomycin and 10% fetal bovine serum (FBS) medium were used, and in the differentiation induction, the FBS medium was replaced with a 2% horse serum (HS)-containing medium. The C2C12 myoblasts were seeded into a 96 well culture plate and a 6 well culture plate at 2×10^5/well and 5×10^3/well, respectively, and cultured at 37° C. in a CO2 incubator. When the confluency reached approximately 90%, the medium was replaced with 2% horse serum (HS)-containing DMEM to induce differentiation of myoblasts. After 5 days, the C2C12 myotubes that had differentiated were treated with 10 ng/ml TNF-α, which is an inflammatory factor, for 48 hours to cause myotube atrophy, thereby creating a muscular atrophy cell model, TNF-α-treated group (TNF-α). During the TNF-α treatment, 10 μM oxiracetam was treated to create an oxiracetam-treated group (Oxiracetam 10 μM), cells that were not treated during the same period were prepared as a control. Two days after TNF-α and oxiracetam treatment, each of the TNF-α-treated group (TNF-α), the oxiracetam-treated group (Oxiracetam 10 μM) and the control was treated with an ATP detection reagent at room temperature, and then luminescence was measured using a mitochondrial ToxGlo™ assay kit (Promega). In addition, the TNF-α-treated group (TNF-α), the oxiracetam-treated group (Oxiracetam 10 μM) and the control were photographed using an optical microscope and the diameter of a myotube cell in each group were measured and compared. Statistical processing was performed using GraphPad Prism (GraphPad Software Inc., San Diego, CA, USA).

[4] = oxiracetam 30, mirtazapine 10, olanzapine 10 mg/kg/day oral 21 days + dexamethasone, DEXA every 7 days

COc1cccc2c1C(=O)c1c(O)c3c(c(O)c1C2=O)C[C@@](O)(C(=O)CO)C[C@@H]3O[C@H]1C[C@H](N)[C@H](O)[C@H](C)O1 [Doxorubicin, doxorubicin]
diameter of myotube [1]: significantly decreased

CN1CCN2c3ncccc3Cc3ccccc3C2C1 (centres unmarked) [mirtazapine]
change in grip strength ([2]; oxiracetam 30, mirtazapine 10, olanzapine 10 mg/kg/day oral 21 days + dexamethasone 10 mg/kg i.p. day 7-21): reduced
lean body mass of the gastrocnemius muscle (GS) [2, 4]: not recovered but rather reduced
lean body mass of the tibialis anterior (TA) [2, 4]: not recovered but rather reduced

TNF-α
diameter of a myotube relative to control [3]: greatly reduced to half the level of the control
